Data as given in the NIST ThermoML archive (doi:10.1016/j.jct.2009.10.007).
Numbers after ± are expanded uncertainties.

How the values were obtained:
[1] = refractive index (Na D-line) (dimensionless); mn = molality of the nth substance listed, in mol/kg; details: 308.15 K, 101 kPa, Liquid, Standard Abbe refractometry
[2] = mn = molality of the nth substance listed, in mol/kg; details: 101 kPa, Liquid; for speed of sound: Sing-around technique in a fixed-path interferometer; for mass density: Vibrating tube method

Structure (SMILES): CCCCn1cc[n+](C)c1.[Br-] [1-butyl-3-methylimidazolium bromide] + O
- refractive index ([1]; m1 = 0.0096): 1.3326 ± 0.0005
- refractive index ([1]; m1 = 0.02): 1.3343 ± 0.0005
- refractive index ([1]; m1 = 0.0298): 1.3358 ± 0.0005
- refractive index ([1]; m1 = 0.0348): 1.3366 ± 0.0005
- refractive index ([1]; m1 = 0.0398): 1.3375 ± 0.0005
- refractive index ([1]; m1 = 0.05): 1.339 ± 0.0005
- refractive index ([1]; m1 = 0.0548): 1.3397 ± 0.0005
- refractive index ([1]; m1 = 0.0598): 1.3405 ± 0.0005
- refractive index ([1]; m1 = 0.0689): 1.3419 ± 0.0005
- refractive index ([1]; m1 = 0.082): 1.3439 ± 0.0005
- refractive index ([1]; m1 = 0.0854): 1.3444 ± 0.0005
- refractive index ([1]; m1 = 0.0896): 1.3451 ± 0.0005
- refractive index ([1]; m1 = 0.1): 1.3466 ± 0.0005
- refractive index ([1]; m1 = 0.1192): 1.3497 ± 0.0005
- speed of sound ([2]; 288.15 K, m1 = 0.0183): 1468.7 ± 0.75 m/s
- speed of sound ([2]; 288.15 K, m1 = 0.0274): 1469.8 ± 0.75 m/s
- speed of sound ([2]; 288.15 K, m1 = 0.0367): 1471 ± 0.75 m/s
- speed of sound ([2]; 288.15 K, m1 = 0.0459): 1472 ± 0.75 m/s
- speed of sound ([2]; 288.15 K, m1 = 0.0692): 1474.8 ± 0.76 m/s
- speed of sound ([2]; 288.15 K, m1 = 0.0932): 1477.3 ± 0.76 m/s
- speed of sound ([2]; 288.15 K, m1 = 0.1164): 1480 ± 0.76 m/s
- speed of sound ([2]; 288.15 K, m1 = 0.141): 1483 ± 0.76 m/s
- speed of sound ([2]; 288.15 K, m1 = 0.1652): 1485.6 ± 0.77 m/s
- speed of sound ([2]; 288.15 K, m1 = 0.1863): 1488 ± 0.77 m/s
- speed of sound ([2]; 288.15 K, m1 = 0.2114): 1490.8 ± 0.77 m/s
- speed of sound ([2]; 288.15 K, m1 = 0.2376): 1493.6 ± 0.77 m/s
- speed of sound ([2]; 288.15 K, m1 = 0.2632): 1496.4 ± 0.78 m/s
- speed of sound ([2]; 288.15 K, m1 = 0.2831): 1498.5 ± 0.78 m/s
- mass density ([2]; 288.15 K, m1 = 0.0183): 1000.03 ± 0.061 kg/m3
- mass density ([2]; 288.15 K, m1 = 0.0274): 1000.49 ± 0.061 kg/m3
- mass density ([2]; 288.15 K, m1 = 0.0367): 1000.96 ± 0.061 kg/m3
- mass density ([2]; 288.15 K, m1 = 0.0459): 1001.42 ± 0.061 kg/m3
- mass density ([2]; 288.15 K, m1 = 0.0692): 1002.59 ± 0.061 kg/m3
- mass density ([2]; 288.15 K, m1 = 0.0932): 1003.78 ± 0.062 kg/m3
- mass density ([2]; 288.15 K, m1 = 0.1164): 1004.92 ± 0.062 kg/m3
- mass density ([2]; 288.15 K, m1 = 0.141): 1006.13 ± 0.062 kg/m3
- mass density ([2]; 288.15 K, m1 = 0.1652): 1007.3 ± 0.063 kg/m3
- mass density ([2]; 288.15 K, m1 = 0.1863): 1008.32 ± 0.063 kg/m3
- mass density ([2]; 288.15 K, m1 = 0.2114): 1009.53 ± 0.064 kg/m3
- mass density ([2]; 288.15 K, m1 = 0.2376): 1010.77 ± 0.065 kg/m3
- mass density ([2]; 288.15 K, m1 = 0.2632): 1011.99 ± 0.065 kg/m3
- mass density ([2]; 288.15 K, m1 = 0.2831): 1012.92 ± 0.065 kg/m3
- speed of sound ([2]; 293.15 K, m1 = 0.0183): 1484.7 ± 0.75 m/s
- speed of sound ([2]; 293.15 K, m1 = 0.0274): 1485.7 ± 0.76 m/s
- speed of sound ([2]; 293.15 K, m1 = 0.0367): 1486.7 ± 0.76 m/s
- speed of sound ([2]; 293.15 K, m1 = 0.0459): 1487.7 ± 0.76 m/s
- speed of sound ([2]; 293.15 K, m1 = 0.0692): 1490.2 ± 0.76 m/s
- speed of sound ([2]; 293.15 K, m1 = 0.0932): 1492.5 ± 0.76 m/s
- speed of sound ([2]; 293.15 K, m1 = 0.1164): 1495 ± 0.76 m/s
- speed of sound ([2]; 293.15 K, m1 = 0.141): 1497.6 ± 0.77 m/s
- speed of sound ([2]; 293.15 K, m1 = 0.1652): 1500.1 ± 0.77 m/s
- speed of sound ([2]; 293.15 K, m1 = 0.1863): 1502.2 ± 0.77 m/s
- speed of sound ([2]; 293.15 K, m1 = 0.2114): 1504.8 ± 0.77 m/s
- speed of sound ([2]; 293.15 K, m1 = 0.2376): 1507.3 ± 0.78 m/s
- speed of sound ([2]; 293.15 K, m1 = 0.2632): 1509.8 ± 0.78 m/s
- speed of sound ([2]; 293.15 K, m1 = 0.2831): 1511.8 ± 0.78 m/s
- mass density ([2]; 293.15 K, m1 = 0.0183): 999.121 ± 0.06 kg/m3
- mass density ([2]; 293.15 K, m1 = 0.0274): 999.575 ± 0.061 kg/m3
- mass density ([2]; 293.15 K, m1 = 0.0367): 1000.04 ± 0.06 kg/m3
- mass density ([2]; 293.15 K, m1 = 0.0459): 1000.49 ± 0.062 kg/m3
- mass density ([2]; 293.15 K, m1 = 0.0692): 1001.64 ± 0.061 kg/m3
- mass density ([2]; 293.15 K, m1 = 0.0932): 1002.82 ± 0.061 kg/m3
- mass density ([2]; 293.15 K, m1 = 0.1164): 1003.94 ± 0.061 kg/m3
- mass density ([2]; 293.15 K, m1 = 0.141): 1005.13 ± 0.062 kg/m3
- mass density ([2]; 293.15 K, m1 = 0.1652): 1006.29 ± 0.062 kg/m3
- mass density ([2]; 293.15 K, m1 = 0.1863): 1007.29 ± 0.063 kg/m3
- mass density ([2]; 293.15 K, m1 = 0.2114): 1008.48 ± 0.063 kg/m3
- mass density ([2]; 293.15 K, m1 = 0.2376): 1009.71 ± 0.064 kg/m3
- mass density ([2]; 293.15 K, m1 = 0.2632): 1010.91 ± 0.064 kg/m3
- mass density ([2]; 293.15 K, m1 = 0.2831): 1011.83 ± 0.062 kg/m3
- speed of sound ([2]; 298.15 K, m1 = 0.0183): 1498.8 ± 0.76 m/s
- speed of sound ([2]; 298.15 K, m1 = 0.0274): 1499.6 ± 0.76 m/s
- speed of sound ([2]; 298.15 K, m1 = 0.0367): 1500.5 ± 0.76 m/s
- speed of sound ([2]; 298.15 K, m1 = 0.0459): 1501.5 ± 0.76 m/s
- speed of sound ([2]; 298.15 K, m1 = 0.0692): 1503.7 ± 0.76 m/s
- speed of sound ([2]; 298.15 K, m1 = 0.0932): 1505.9 ± 0.76 m/s
- speed of sound ([2]; 298.15 K, m1 = 0.1164): 1508.1 ± 0.77 m/s
